Measurements as given in patent publication US20230017045A1, “PYRIDINE AND PYRIMIDINE CARBOXYLATE HERBICIDES AND METHODS OF USE THEREOF” (Dow AgroSciences LLC, priority 2017, published 2023).

Tested on: test plant species
Test: Post-emergent herbicidal activity test (greenhouse, foliar spray, visual growth reduction)
Format: in vivo
Details: post-emergence, 336 h, ALOMY: blackgrass (Alopecurus myosuroides), 140 g ai/ha, 14 days after application, read-out: Visual Growth Reduction (%) 14 Days After Application, ALOMY
Description: Post-emergent Test: Seeds or nutlets of the desired test plant species were planted in Sun Gro Metro-Mix® 360 planting mixture, which typically has a pH of 6.0 to 6.8 and an organic matter content of about 30 percent, in plastic pots with a surface area of 64 square centimeters. In some aspects, to ensure good germination and healthy plants, a fungicide treatment and/or other chemical or physical treatment was applied. The plants were grown for 7-21 d in a greenhouse with an approximate 15 h photoperiod which was maintained at 23-29° C. during the day and 22-28° C. during the night. Nutrients and water were added on a regular basis and supplemental lighting was provided with overhead metal halide 1000-Watt lamps as necessary. Plants were used for testing when they reached the first or second true leaf stage. A weighed amount, determined by the highest rate to be tested, of each test compound was placed in a 25 mL glass vial and was dissolved in 4 mL of a 97:3 v/v mixture of acetone and DMSO to obtain concentrated stock solutions. […] The concentrated stock solutions obtained were diluted with 20 mL of an aqueous mixture containing acetone, water, isopropyl alcohol, DMSO, […] crop oil concentrate, and X-77 surfactant in a 48.5:39:10:1.5:1.0:0.02 v/v ratio to obtain spray solutions containing the application rate. Compound requirements are based upon a 12 mL application volume at a rate of 187 liters per hectare (L/ha). Formulated compounds were applied to the plant material with an overhead Mandel track sprayer equipped with […] nozzles calibrated to deliver 187 L/ha over an application area of 0.64 square meters at a spray height of 18 inches (43 cm) above the average plant canopy height. Control plants were sprayed in the same manner with the solvent blank. The treated plants and control plants were placed in a greenhouse as described above and watered by subirrigation to prevent wash-off of the test compounds. After 14 d, the condition of the test plants as compared with that of the nontreated and control plants was determined visually and scored on a scale of 0 to 100 percent where 0 corresponds to no injury and 100 corresponds to complete control. In the reporting of the results, Table A: Percent Growth Reduction Conversion Table was used.

Structure (SMILES)	pest or weed control at 140 g/ha
COC(=O)c1nc(-c2c(Cl)cc(C(F)(F)F)cc2S(C)(=O)=O)ccc1Cl [F138, methyl 3-chloro-6-(2-chloro-6-(methylsulfonyl)-4-(trifluoromethyl)phenyl)picolinate]	0 to 29%

Same assay, conditions: post-emergence, 336 h, AMARE: redroot pigweed (Amaranthus retroflexus), 140 g ai/ha, 14 days after application, read-out: Visual Growth Reduction (%) 14 Days After Application, AMARE

Structure (SMILES)	pest or weed control at 140 g/ha
COC(=O)c1nc(-c2c(Cl)cc(C(F)(F)F)cc2S(C)(=O)=O)ccc1Cl [F138, methyl 3-chloro-6-(2-chloro-6-(methylsulfonyl)-4-(trifluoromethyl)phenyl)picolinate]	85 to 94%

Same assay, conditions: post-emergence, 336 h, AVEFA: wild oat (Avena fatua), 140 g ai/ha, 14 days after application, read-out: Visual Growth Reduction (%) 14 Days After Application, AVEFA

Structure (SMILES)	pest or weed control at 140 g/ha
COC(=O)c1nc(-c2c(Cl)cc(C(F)(F)F)cc2S(C)(=O)=O)ccc1Cl [F138, methyl 3-chloro-6-(2-chloro-6-(methylsulfonyl)-4-(trifluoromethyl)phenyl)picolinate]	0 to 29%

Same assay, conditions: post-emergence, 336 h, CHEAL: lambsquarters (Chenopodium album), 140 g ai/ha, 14 days after application, read-out: Visual Growth Reduction (%) 14 Days After Application, CHEAL

Structure (SMILES)	pest or weed control at 140 g/ha
COC(=O)c1nc(-c2c(Cl)cc(C(F)(F)F)cc2S(C)(=O)=O)ccc1Cl [F138, methyl 3-chloro-6-(2-chloro-6-(methylsulfonyl)-4-(trifluoromethyl)phenyl)picolinate]	60 to 74%

Same assay, conditions: post-emergence, 336 h, CIRAR: canada thistle (Cirsium arvense), 140 g ai/ha, 14 days after application, read-out: Visual Growth Reduction (%) 14 Days After Application, CIRAR

Structure (SMILES)	pest or weed control at 140 g/ha
COC(=O)c1nc(-c2c(Cl)cc(C(F)(F)F)cc2S(C)(=O)=O)ccc1Cl [F138, methyl 3-chloro-6-(2-chloro-6-(methylsulfonyl)-4-(trifluoromethyl)phenyl)picolinate]	60 to 74%

Same assay, conditions: post-emergence, 336 h, CYPES: yellow nutsedge (Cyperus esculentus), 140 g ai/ha, 14 days after application, read-out: Visual Growth Reduction (%) 14 Days After Application, CYPES

Structure (SMILES)	pest or weed control at 140 g/ha
COC(=O)c1nc(-c2c(Cl)cc(C(F)(F)F)cc2S(C)(=O)=O)ccc1Cl [F138, methyl 3-chloro-6-(2-chloro-6-(methylsulfonyl)-4-(trifluoromethyl)phenyl)picolinate]	0 to 29%

Same assay, conditions: post-emergence, 336 h, DIGSA: crabgrass (Digitaria sanguinalis), 140 g ai/ha, 14 days after application, read-out: Visual Growth Reduction (%) 14 Days After Application, DIGSA

Structure (SMILES)	pest or weed control at 140 g/ha
COC(=O)c1nc(-c2c(Cl)cc(C(F)(F)F)cc2S(C)(=O)=O)ccc1Cl [F138, methyl 3-chloro-6-(2-chloro-6-(methylsulfonyl)-4-(trifluoromethyl)phenyl)picolinate]	0 to 29%

Same assay, conditions: post-emergence, 336 h, ECHCG: barnyardgrass (Echinochloa crus-galli), 140 g ai/ha, 14 days after application, read-out: Visual Growth Reduction (%) 14 Days After Application, ECHCG

Structure (SMILES)	pest or weed control at 140 g/ha
CSc1cc(-c2nc(C(=O)O)c(Cl)cc2F)c(Cl)cc1C(F)(F)F [F342, 3-Chloro-6-(2-chloro-5-(methylthio)-4-(trifluoromethyl)phenyl)-5-fluoropicolinic acid]	0 to 29%
COC(=O)c1nc(-c2c(Cl)cc(C(F)(F)F)cc2S(C)(=O)=O)ccc1Cl [F138, methyl 3-chloro-6-(2-chloro-6-(methylsulfonyl)-4-(trifluoromethyl)phenyl)picolinate]	0 to 29%

Same assay, conditions: post-emergence, 336 h, IPOHE: ivy-leaf morning glory (Ipomoea hederacea), 140 g ai/ha, 14 days after application, read-out: Visual Growth Reduction (%) 14 Days After Application, IPOHE

Structure (SMILES)	pest or weed control at 140 g/ha
CSc1cc(-c2nc(C(=O)O)c(Cl)cc2F)c(Cl)cc1C(F)(F)F [F342, 3-Chloro-6-(2-chloro-5-(methylthio)-4-(trifluoromethyl)phenyl)-5-fluoropicolinic acid]	85 to 94%
COC(=O)c1nc(-c2c(Cl)cc(C(F)(F)F)cc2S(C)(=O)=O)ccc1Cl [F138, methyl 3-chloro-6-(2-chloro-6-(methylsulfonyl)-4-(trifluoromethyl)phenyl)picolinate]	75 to 84%

Same assay, conditions: post-emergence, 336 h, KCHSC: kochia (Bassia scoparia), 140 g ai/ha, 14 days after application, read-out: Visual Growth Reduction (%) 14 Days After Application, KCHSC

Structure (SMILES)	pest or weed control at 140 g/ha
CSc1cc(-c2nc(C(=O)O)c(Cl)cc2F)c(Cl)cc1C(F)(F)F [F342, 3-Chloro-6-(2-chloro-5-(methylthio)-4-(trifluoromethyl)phenyl)-5-fluoropicolinic acid]	85 to 94%
COC(=O)c1nc(-c2c(Cl)cc(C(F)(F)F)cc2S(C)(=O)=O)ccc1Cl [F138, methyl 3-chloro-6-(2-chloro-6-(methylsulfonyl)-4-(trifluoromethyl)phenyl)picolinate]	60 to 74%

Same assay, conditions: post-emergence, 336 h, ORYSA: rice (Oryza sativa), 140 g ai/ha, 14 days after application, read-out: Visual Growth Reduction (%) 14 Days After Application, ORYSA

Structure (SMILES)	pest or weed control at 140 g/ha
CSc1cc(-c2nc(C(=O)O)c(Cl)cc2F)c(Cl)cc1C(F)(F)F [F342, 3-Chloro-6-(2-chloro-5-(methylthio)-4-(trifluoromethyl)phenyl)-5-fluoropicolinic acid]	0 to 29%
COC(=O)c1nc(-c2c(Cl)cc(C(F)(F)F)cc2S(C)(=O)=O)ccc1Cl [F138, methyl 3-chloro-6-(2-chloro-6-(methylsulfonyl)-4-(trifluoromethyl)phenyl)picolinate]	0 to 29%

Same assay, conditions: post-emergence, 336 h, SETFA: giant foxtail (Setaria faberi), 140 g ai/ha, 14 days after application, read-out: Visual Growth Reduction (%) 14 Days After Application, SETFA

Structure (SMILES)	pest or weed control at 140 g/ha
CSc1cc(-c2nc(C(=O)O)c(Cl)cc2F)c(Cl)cc1C(F)(F)F [F342, 3-Chloro-6-(2-chloro-5-(methylthio)-4-(trifluoromethyl)phenyl)-5-fluoropicolinic acid]	30 to 44%
COC(=O)c1nc(-c2c(Cl)cc(C(F)(F)F)cc2S(C)(=O)=O)ccc1Cl [F138, methyl 3-chloro-6-(2-chloro-6-(methylsulfonyl)-4-(trifluoromethyl)phenyl)picolinate]	0 to 29%

Same assay, conditions: post-emergence, 336 h, SORVU: grain sorghum (Sorghum vulgare), 140 g ai/ha, 14 days after application, read-out: Visual Growth Reduction (%) 14 Days After Application, SORVU

Structure (SMILES)	pest or weed control at 140 g/ha
CSc1cc(-c2nc(C(=O)O)c(Cl)cc2F)c(Cl)cc1C(F)(F)F [F342, 3-Chloro-6-(2-chloro-5-(methylthio)-4-(trifluoromethyl)phenyl)-5-fluoropicolinic acid]	30 to 44%
COC(=O)c1nc(-c2c(Cl)cc(C(F)(F)F)cc2S(C)(=O)=O)ccc1Cl [F138, methyl 3-chloro-6-(2-chloro-6-(methylsulfonyl)-4-(trifluoromethyl)phenyl)picolinate]	0 to 29%

Same assay, conditions: post-emergence, 336 h, STEME: common chickweed (Stellaria media), 140 g ai/ha, 14 days after application, read-out: Visual Growth Reduction (%) 14 Days After Application, STEME

Structure (SMILES)	pest or weed control at 140 g/ha
CSc1cc(-c2nc(C(=O)O)c(Cl)cc2F)c(Cl)cc1C(F)(F)F [F342, 3-Chloro-6-(2-chloro-5-(methylthio)-4-(trifluoromethyl)phenyl)-5-fluoropicolinic acid]	0 to 29%
COC(=O)c1nc(-c2c(Cl)cc(C(F)(F)F)cc2S(C)(=O)=O)ccc1Cl [F138, methyl 3-chloro-6-(2-chloro-6-(methylsulfonyl)-4-(trifluoromethyl)phenyl)picolinate]	0 to 29%

Same assay, conditions: post-emergence, 336 h, TRZAS: wheat, spring (Triticum aestivum), 140 g ai/ha, 14 days after application, read-out: Visual Growth Reduction (%) 14 Days After Application, TRZAS

Structure (SMILES)	pest or weed control at 140 g/ha
CSc1cc(-c2nc(C(=O)O)c(Cl)cc2F)c(Cl)cc1C(F)(F)F [F342, 3-Chloro-6-(2-chloro-5-(methylthio)-4-(trifluoromethyl)phenyl)-5-fluoropicolinic acid]	30 to 44%
COC(=O)c1nc(-c2c(Cl)cc(C(F)(F)F)cc2S(C)(=O)=O)ccc1Cl [F138, methyl 3-chloro-6-(2-chloro-6-(methylsulfonyl)-4-(trifluoromethyl)phenyl)picolinate]	0 to 29%

Same assay, conditions: post-emergence, 336 h, blackgrass (Alopecurus myosuroides), 14 Days After Application, 140 g ai/ha, read-out: Visual Growth Reduction (%) ALOMY

Structure (SMILES)	pest or weed control at 140 g/ha
CSc1cc(-c2nc(C(=O)O)c(Cl)cc2F)c(Cl)cc1C(F)(F)F [F342, 3-Chloro-6-(2-chloro-5-(methylthio)-4-(trifluoromethyl)phenyl)-5-fluoropicolinic acid]	0 to 29%

Same assay, conditions: post-emergence, 336 h, crabgrass (Digitaria sanguinalis), 14 Days After Application, 140 g ai/ha, read-out: Visual Growth Reduction (%) DIGSA

Structure (SMILES)	pest or weed control at 140 g/ha
CSc1cc(-c2nc(C(=O)O)c(Cl)cc2F)c(Cl)cc1C(F)(F)F [F342, 3-Chloro-6-(2-chloro-5-(methylthio)-4-(trifluoromethyl)phenyl)-5-fluoropicolinic acid]	0 to 29%

Same assay, conditions: post-emergence, 336 h, lambsquarters (Chenopodium album), 14 Days After Application, 140 g ai/ha, read-out: Visual Growth Reduction (%) CHEAL

Structure (SMILES)	pest or weed control at 140 g/ha
CSc1cc(-c2nc(C(=O)O)c(Cl)cc2F)c(Cl)cc1C(F)(F)F [F342, 3-Chloro-6-(2-chloro-5-(methylthio)-4-(trifluoromethyl)phenyl)-5-fluoropicolinic acid]	60 to 74%

Same assay, conditions: post-emergence, 336 h, redroot pigweed (Amaranthus retroflexus), 14 Days After Application, 140 g ai/ha, read-out: Visual Growth Reduction (%) AMARE

Structure (SMILES)	pest or weed control at 140 g/ha
CSc1cc(-c2nc(C(=O)O)c(Cl)cc2F)c(Cl)cc1C(F)(F)F [F342, 3-Chloro-6-(2-chloro-5-(methylthio)-4-(trifluoromethyl)phenyl)-5-fluoropicolinic acid]	0 to 29%

Same assay, conditions: post-emergence, 336 h, wild oat (Avena fatua), 14 Days After Application, 140 g ai/ha, read-out: Visual Growth Reduction (%) AVEFA

Structure (SMILES)	pest or weed control at 140 g/ha
CSc1cc(-c2nc(C(=O)O)c(Cl)cc2F)c(Cl)cc1C(F)(F)F [F342, 3-Chloro-6-(2-chloro-5-(methylthio)-4-(trifluoromethyl)phenyl)-5-fluoropicolinic acid]	0 to 29%

Same assay, conditions: post-emergence, 336 h, yellow nutsedge (Cyperus esculentus), 14 Days After Application, 140 g ai/ha, read-out: Visual Growth Reduction (%) CYPES

Structure (SMILES)	pest or weed control at 140 g/ha
CSc1cc(-c2nc(C(=O)O)c(Cl)cc2F)c(Cl)cc1C(F)(F)F [F342, 3-Chloro-6-(2-chloro-5-(methylthio)-4-(trifluoromethyl)phenyl)-5-fluoropicolinic acid]	0 to 29%
